Legend:
[1] = molecular target: DDB1ΔB-CRBN (Homo sapiens (Human), UniProt Q96SW2); test: Atto565-Lenalidomide displacement assay (fluorescence polarization, CRBN binding); details: for IC50: 10 nM Atto565-Lenalidomide, 100 nM DDB1ΔB-CRBN, n=2; for Ki: calculated from IC50 with probe Kd of 40 nM, competitive model
Description: Various inventive compounds were analyzed for cereblon binding. […] Compound titrations were incubated for 60 min at room temperature. The change in fluorescence polarization was monitored using a PHERAstar® FS microplate reader (BMG Labtech) for 1 h in 120s cycles.

[2] = molecular target: CRBN (Homo sapiens (Human), UniProt Q96SW2); test: Cellular CRBN dBET6 displacement assay (BRD4BD2-GFP/mCherry reporter cells); format: cell-based; details: Flip-In 293 cells stably expressing BRD4BD2-GFP, 100 nM dBET6, 5 hours; read-out: Cellular CRBN-BRD4 dBET6 displacement EC50
CRBN, sequence (Q96SW2 whole entry): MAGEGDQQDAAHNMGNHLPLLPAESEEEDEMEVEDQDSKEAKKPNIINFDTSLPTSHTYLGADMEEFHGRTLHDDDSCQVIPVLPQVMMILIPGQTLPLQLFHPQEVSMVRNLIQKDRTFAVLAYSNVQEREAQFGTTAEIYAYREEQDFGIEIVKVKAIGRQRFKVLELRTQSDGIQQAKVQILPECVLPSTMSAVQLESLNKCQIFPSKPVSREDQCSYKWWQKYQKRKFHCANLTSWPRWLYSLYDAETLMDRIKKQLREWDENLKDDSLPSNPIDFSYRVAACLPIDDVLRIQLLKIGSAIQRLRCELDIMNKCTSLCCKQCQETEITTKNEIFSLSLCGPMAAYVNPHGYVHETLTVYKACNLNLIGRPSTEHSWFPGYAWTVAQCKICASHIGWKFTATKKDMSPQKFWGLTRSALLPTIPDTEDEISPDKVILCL
Description: BRD4BD2 were subcloned into mammalian pcDNA5/FRT Vector (Ampicillin and Hygromycin B resistant) modified to contain MCS-eGFP-P2A-mCherry. […] Following a 2-3 passage cycle, FACS (FACSAria™ II, BD) was used to enrich for cells expressing eGFP and mCherry.
Signal from minimal 3000 events per well was acquired and the eGFP and mCherry florescence monitored. Data was analyzed using FlowJo® (FlowJo®, LCC). […] The eGFP protein abundance relative to mCherry was then quantified as a ten-fold amplified ratio for each individual cell using the formula: 10×eGFP/mCherry. The median of the ratio was then calculated per set, normalized to the median of the DMSO ratio.
This assay provided a readout of cellular CRBN binding impacted by the permeability of the molecule tested.

DDB1ΔB-CRBN, sequence (Q96SW2 whole entry, stated change not applied): as the sequence (Q96SW2 whole entry) above

SMILES	IC50 [1] [µM]	Ki [1] [µM]	EC50 [2] [µM]
O=C1CCC(N2Cc3c(NC(=O)CNc4ccnc(Nc5ccc6c(c5)CCC6)n4)cccc3C2=O)C(=O)N1 (stereo not shown) [Compound 2, 2-((2-((2,3-dihydro-1H-inden-5-yl)amino)pyrimidin-4-yl)amino)-N-(2-(2,6-dioxopiperidin-3-yl)-1-oxoisoindolin-4-yl)acetamide]	47.5	13.6	47.9
O=C1CCC(N2Cc3c(NC(=O)CNc4ccnc(NCc5ccc6c(c5)OCO6)n4)cccc3C2=O)C(=O)N1 (stereo not shown) [Compound 3, 2-((2-((benzo[d][1,3]dioxol-5-ylmethyl)amino)pyrimidin-4-yl)amino)-N-(2-(2,6-dioxopiperidin-3-yl)-1-oxoisoindolin-4-yl)acetamide]	12.5	13.6	
O=C1CCC(N2Cc3c(NC(=O)CNc4ccnc(NCCCN5CCCC5=O)n4)cccc3C2=O)C(=O)N1 (stereo not shown) [Compound 6, N-(2-(2,6-dioxopiperidin-3-yl)-1-oxoisoindolin-4-yl)-2-((2-((3-(2-oxopyrrolidin-1-yl)propyl)amino)pyrimidin-4-yl)amino)acetamide]	22.9	6.5	

The next lines start with the values.

IC50 [1] [µM]	Ki [1] [µM]	EC50 [2] [µM]	SMILES
28.9	8.3		O=C1CCC(N2Cc3c(NC(=O)CNc4ccnc(-c5cc6ccccc6o5)n4)cccc3C2=O)C(=O)N1 (stereo not shown) [Compound 13, 2-((2-(benzofuran-2-yl)pyrimidin-4-yl)amino)-N-(2-(2,6-dioxopiperidin-3-yl)-1-oxoisoindolin-4-yl)acetamide]
14.7	4.2		O=C1CCC(N2Cc3c(NC(=O)CNc4ccnc(-c5ccc(F)cc5)n4)cccc3C2=O)C(=O)N1 (stereo not shown) [Compound 11, N-(2-(2,6-dioxopiperidin-3-yl)-1-oxoisoindolin-4-yl)-2-((2-(4-fluorophenyl)pyrimidin-4-yl)amino)acetamide]
0.517	0.13		O=C1CCC(N2Cc3c(NC(=O)CNc4ccnc(N5CCN(c6cccc(C(F)(F)F)c6)CC5)n4)cccc3C2=O)C(=O)N1 (stereo not shown) [Compound 16, N-(2-(2,6-dioxopiperidin-3-yl)-1-oxoisoindolin-4-yl)-2-((2-(4-(3-(trifluoromethyl)phenyl)piperazin-1-yl)pyrimidin-4-yl)amino)acetamide]
